Patent US10646488B2 (Araxes Pharma LLC, priority 2016, dated 2020)

Molecular target: T1, KRAS G12C 1-169, his-tagged protein, GDP-loaded (Homo sapiens, UniProt P01116, G12C)
T1 construct: KRAS G12C 1-169, his-tagged protein, GDP-loaded
Experiment: Covalent binding (% modification) to KRAS G12C by mass spectrometry; also: test concentration or dose not given here

[1] = covalent binding to KRAS G12C after a three minute incubation period
[2] = covalent binding to KRAS G12C after a ten minute incubation period

Compound	Binding % [1]	Binding % [2]
C=CC(=O)N1C[C@H](C)N(c2nc(OCCN(CC)CC)nc3c(F)c(-c4c(C)ccc5cn[nH]c45)c(Cl)cc23)C[C@H]1C [Compound 136, 1-((2R,5S)-4-(6-chloro-2-(2-(diethylamino)ethoxy)-8-fluoro-7-(6-methyl-1H-indazol-7-yl)quinazolin-4-yl)-2,5-dimethyl-piperazin-1-yl) prop-2-en-1-one]	+++ (+++ indicates binding activity greater than 90%)	–
C=CC(=O)N1[C@H](C)CN(c2nc(NC3CCN(C4CC4)CC3)nc3c(F)c(-c4c(C)ccc5cn[nH]c45)c(Cl)cc23)C[C@@H]1C [Compound 19, 1-((2S,6R)-4-(6-Chloro-2-((1-Cyclopropylpiperidin-4-Yl)Amino)-8-Fluoro-7-(6-Methyl-1H-Indazol-7-Yl)Quinazolin-4-Yl)-2,6-Dimethylpiperazin-1-Yl)Prop-2-En-1-One]	–	++ (++ indicates binding activity from 50 to 90%)
C=CC(=O)N1C[C@H](C)N(c2nc(OCCN3CCC(F)(F)C3)nc3c(F)c(-c4c(O)ccc5ccccc45)c(Cl)cc23)C[C@H]1C [Compound 213, 1-((2R,5S)-4-(6-chloro-2-(2-(3,3-difluoropyrrolidin-1-yl)ethoxy)-8-fluoro-7-(2-hydroxynaphthalen-1-yl)quinazolin-4-yl)-2,5-dimethyl-piperazin-1-yl) prop-2-en-1-one]	+ (+ indicates binding activity greater than 0% and up to 50%)	–
C=CC(=O)N1C[C@H](C)N(c2nc(Oc3ccnn3C)nc3c(F)c(-c4c(O)cccc4F)c(Cl)cc23)C[C@H]1C [Compound 208, 1-((2R,5S)-4-(6-chloro-8-fluoro-7-(2-fluoro-6-hydroxyphenyl)-2-((1-methyl-1H-pyrazol-5-yl)oxy)quinazolin-4-yl)-2,5-dimethyl-piperazin-1-yl) prop-2-en-1-one]	+++ (+++ indicates binding activity greater than 90%)	–
C=CC(=O)N1C[C@H](C)N(c2nc(N3CC4(CCN(C)C4)C3)nc3c(F)c(-c4c(O)cccc4F)c(Cl)cc23)C[C@H]1C [Compound 190, 1-((2R,5S)-4-(6-chloro-8-fluoro-7-(2-fluoro-6-hydroxyphenyl)-2-(6-methyl-2,6-diazaspiro[3.4]octan-2-yl)quinazolin-4-yl)-2,5-dimethyl-piperazin-1-yl) prop-2-en-1-one]	++ (++ indicates binding activity from 50 to 90%)	–
C=CC(=O)N1CCN(c2nc(OCCN3CC(F)(F)C3)nc3c(F)c(-c4c(O)cccc4F)c(Cl)cc23)[C@@H](C)C1 [Compound 11, 1-((3S)-4-(6-chloro-2-(2-(3,3-difluoroazetidin-1-yl)ethoxy)-8-fluoro-7-(2-fluoro-6-hydroxyphenyl)quinazolin-4-yl)-3-methylpiperazin-1-yl)prop-2-en-1-one]	–	+++ (+++ indicates binding activity greater than 90%)
C=CC(=O)N1C[C@H](C)N(c2nc(N3CC(N(C)C)C3)nc3c(F)c(-c4c(C)ccc5[nH]ncc45)c(Cl)cc23)C[C@H]1C (atropisomer, axis not shown) [Compound 131, 1-((2R,5S)-4-(6-chloro-2-(3-(dimethylamino)azetidin-1-yl)-8-fluoro-7-((S)-5-methyl-1H-indazol-4-yl)quinazolin-4-yl)-2,5-dimethyl-piperazin-1-yl) prop-2-en-1-one]	+ (+ indicates binding activity greater than 0% and up to 50%)	–
C=CC(=O)N1C[C@H](C)N(c2nc(N3CC(N(C)C)C3)nc3c(F)c(-c4c(C)ccc5cn[nH]c45)c(Cl)cc23)C[C@H]1C [Compound 187, 1-((2R,5S)-4-(6-chloro-2-(3-(dimethylamino)azetidin-1-yl)-8-fluoro-7-(6-methyl-1H-indazol-7-yl)quinazolin-4-yl)-2,5-dimethyl-piperazin-1-yl) prop-2-en-1-one]	+++ (+++ indicates binding activity greater than 90%)	–
C=CC(=O)N1C[C@H](C)N(c2nc(OCCn3ccnc3)nc3c(F)c(-c4c(O)cccc4F)c(Cl)cc23)C[C@H]1C [Compound 232, 1-((2R,5S)-4-(2-(2-(1H-imidazol-1-yl)ethoxy)-6-chloro-8-fluoro-7-(2-fluoro-6-hydroxyphenyl)quinazolin-4-yl)-2,5-dimethyl-piperazin-1-yl) prop-2-en-1-one]	++ (++ indicates binding activity from 50 to 90%)	–
C=CC(=O)N1CCN(c2c(C#N)c(N3CC(N(C)C)C3)nc3c(F)c(-c4c(O)cccc4F)c(Cl)cc23)C[C@H]1C [Compound 76]	–	+ (+ indicates binding activity up to 50%)
[2H]C([2H])([2H])N(C1CN(c2nc(N3C[C@@H](C)N(C(=O)C=C)C[C@@H]3C)c3cc(Cl)c(-c4cc(O)cc5ccccc45)c(F)c3n2)C1)C([2H])([2H])[2H] (atropisomer, axis not shown) [Compound 228]	+++ (+++ indicates binding activity greater than 90%)	–
C=CC(=O)N1CCN(c2nc(N3CC(N(C)C)C3)nc3c(F)c(-c4c(O)cccc4F)c(Cl)cc23)C[C@H]1C (atropisomer, axis not shown) [Compound 61, 1-((R)-4-((R)-6-chloro-2-(3-(dimethylamino)azetidin-1-yl)-8-fluoro-7-(2-fluoro-6-hydroxyphenyl)quinazolin-4-yl)-2-methyl-piperazin-1-yl) prop-2-en-1-one]	–	+ (+ indicates binding activity up to 50%)
C=CC(=O)N1[C@H](C)CN(c2nc(OCCN(CC)CC)nc3c(F)c(-c4c(C)ccc5cn[nH]c45)c(Cl)cc23)C[C@@H]1C [Compound 23, 1-((2R,6S)-4-(6-chloro-2-(2-(diethylamino)ethoxy)-8-fluoro-7-(6-methyl-1H-indazol-7-yl)quinazolin-4-yl)-2,6-dimethyl-piperazin-1-yl) prop-2-en-1-one]	–	++ (++ indicates binding activity from 50 to 90%)
C[C@@H]1CN(c2nc(N3CC(N(C)C)C3)nc3c(F)c(-c4c(O)cccc4F)c(Cl)cc23)[C@@H](C)CN1C(=O)/C(C#N)=C/c1ccccn1 [Compound 111, (E)-2-((2R,5S)-4-(6-chloro-2-(3-(dimethylamino)azetidin-1-yl)-8-fluoro-7-(2-fluoro-6-hydroxyphenyl)quinazolin-4-yl)-2,5-dimethyl-piperazine-1-carbonyl)-3-(pyridin-2-yl) acrylonitrile]	+ (+ indicates binding activity greater than 0% and up to 50%)	–
C=CC(=O)N1[C@H](C)CN(c2nc(OCCN3CC(F)(F)C3)nc3c(F)c(-c4c(C)ccc5[nH]ncc45)c(Cl)cc23)C[C@@H]1C [Compound 41, 1-((2R,6S)-4-(6-chloro-2-(2-(3,3-difluoroazetidin-1-yl)ethoxy)-8-fluoro-7-(5-methyl-1H-indazol-4-yl)quinazolin-4-yl)-2,6-dimethyl-piperazin-1-yl) prop-2-en-1-one]	–	++ (++ indicates binding activity from 50 to 90%)
C=CC(=O)N1C[C@H](C)N(c2nc(N3CC(N(C)C4CC4)C3)nc3c(F)c(-c4c(O)cccc4F)c(Cl)cc23)C[C@H]1C [Compound 106, 1-((2R,5S)-4-(6-chloro-2-(3-(cyclopropyl (methyl)amino)azetidin-1-yl)-8-fluoro-7-(2-fluoro-6-hydroxyphenyl)quinazolin-4-yl)-2,5-dimethyl-piperazin-1-yl) prop-2-en-1-one]	++ (++ indicates binding activity from 50 to 90%)	–
C=CC(=O)N1C[C@H](C)N(c2nc(OC3CCN(C4CC4)CC3)nc3c(F)c(-c4c(C)ccc5[nH]ncc45)c(Cl)cc23)C[C@H]1C [Compound 78, 1-((2R,5S)-4-(6-chloro-2-((1-cyclopropyl-piperidin-4-yl)oxy)-8-fluoro-7-(5-methyl-1H-indazol-4-yl)quinazolin-4-yl)-2,5-dimethyl-piperazin-1-yl) prop-2-en-1-one]	–	++ (++ indicates binding activity from 50 to 90%)
C=CC(=O)N1C[C@@H](C)N(c2nc(N)nc3c(F)c(-c4c(C)ccc5cn[nH]c45)c(Cl)cc23)[C@@H](C)C1 [Compound 31, 1-((3S,5R)-4-(2-amino-6-chloro-8-fluoro-7-(6-methyl-1H-indazol-7-yl)quinazolin-4-yl)-3,5-dimethyl-piperazin-1-yl) prop-2-en-1-one]	–	++ (++ indicates binding activity from 50 to 90%)
C=CC(=O)N1C[C@H](C)N(c2nc(N3CC(N4CCC(F)(F)C4)C3)nc3c(F)c(-c4c(O)cccc4F)c(Cl)cc23)C[C@H]1C [Compound 103, 1-((2R,5S)-4-(6-chloro-2-(3-(3,3-difluoro-pyrrolidin-1-yl)azetidin-1-yl)-8-fluoro-7-(2-fluoro-6-hydroxyphenyl)quinazolin-4-yl)-2,5-dimethyl-piperazin-1-yl) prop-2-en-1-one]	+ (+ indicates binding activity greater than 0% and up to 50%)	–
C=CC(=O)N1C[C@H](C)N(c2nc(N3CC(N(C)C)C3)nc3c(F)c(-c4c(O)cccc4F)c(Cl)cc23)C[C@H]1C (atropisomer, axis not shown) [Compound 52, 1-((2R,5S)-4-((S)-6-chloro-2-(3-(dimethylamino)azetidin-1-yl)-8-fluoro-7-(2-fluoro-6-hydroxyphenyl)quinazolin-4-yl)-2,5-dimethyl-piperazin-1-yl) prop-2-en-1-one]	–	+++ (+++ indicates binding activity greater than 90%)
C=CC(=O)N1C[C@H](C)N(c2nc(N3CC4(CCN4C)C3)nc3c(F)c(-c4c(O)cccc4F)c(Cl)cc23)C[C@H]1C [Compound 184, 1-((2R,5S)-4-(6-chloro-8-fluoro-7-(2-fluoro-6-hydroxyphenyl)-2-(1-methyl-1,6-diazaspiro[3.3]heptan-6-yl)quinazolin-4-yl)-2,5-dimethyl-piperazin-1-yl) prop-2-en-1-one]	++ (++ indicates binding activity from 50 to 90%)	–
C=CC(=O)N1C[C@H](C)N(c2nc(OCCc3ncccn3)nc3c(F)c(-c4c(C)ccc5[nH]ncc45)c(Cl)cc23)C[C@H]1C [Compound 197, 1-((2R,5S)-4-(6-chloro-8-fluoro-7-(5-methyl-1H-indazol-4-yl)-2-(2-(pyrimidin-2-yl)ethoxy)quinazolin-4-yl)-2,5-dimethyl-piperazin-1-yl) prop-2-en-1-one]	+++ (+++ indicates binding activity greater than 90%)	–
